The source of these data is patent US6951878B2, “Benzo[b]thiophenyl or tetrahydro-benzo[b]thiophenyl modulators of protein tyrosine phosphatases (PTPases)” (Novo Nordisk A/S, priority 1998, dated 2005).

Where a name gives a salt, the structure may show the parent alone.

The target in the experiment is T1, truncated form of PTP1B (corresponding to the first 321 amino acids) (Homo sapiens, UniProt P18031).
T1 construct: a truncated form of PTP1B (corresponding to the first 321 amino acids); made in house; host or cells: E. coli
T1 sequence (P18031 1-321): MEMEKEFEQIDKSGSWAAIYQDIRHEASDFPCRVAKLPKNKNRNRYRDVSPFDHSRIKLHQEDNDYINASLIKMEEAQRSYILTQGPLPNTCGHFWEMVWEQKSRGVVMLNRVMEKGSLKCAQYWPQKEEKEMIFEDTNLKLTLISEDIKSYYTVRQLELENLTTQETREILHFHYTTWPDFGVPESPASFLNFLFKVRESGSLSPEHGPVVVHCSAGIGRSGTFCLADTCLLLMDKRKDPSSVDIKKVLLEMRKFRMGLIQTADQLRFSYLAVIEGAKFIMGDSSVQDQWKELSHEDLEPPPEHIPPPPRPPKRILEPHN
Put plainly: Inhibition of PTP1B, p-nitrophenyl phosphate substrate. The format is biochemical. The conditions noted are these: substrate p-nitrophenyl phosphate 0.16 to 10 mM; 100 mM sodium acetate pH 5.5; 25° C. for 60 minutes; absorbance at 405 nm. Here is the method: The assay conditions are as follows. Appropriate concentrations of the compounds of the invention are added to the reaction mixtures containing different concentrations of the substrate, p-nitrophenyl phosphate (range: 0.16 to 10 mM—final assay concentration). The buffer used was 100 mM sodium acetate pH 5.5, 50 mM sodium chloride, 0.1% (w/v) bovine serum albumin and 5 mM dithiothreitol (total volume […]). The reaction was started by addition of the enzyme and carried out in microtiter plates at 25° C. for 60 minutes. The reactions are stopped by addition of NaOH. […] The data are analyzed using nonlinear regression fit to classical Michaelis Menten enzyme kinetic models. Inhibition is expressed as Ki values in μM.

For orientation: Ki means a dissociation constant, usually derived from enzyme kinetics or from competition with a known ligand. A higher Ki goes with weaker binding.

As for `O=C(O)C(=O)Nc1sc2c(c1C(=O)O)CCN(C(=O)c1ccccc1)C2` [Example 1, 6-Benzoyl-2-(oxalyl-amino)-4,5,6,7-tetrahydro-thien[2,3-c]pyridine-3-carboxylic acid, Mono Sodium Salt], the Ki came to 51 µM.

In the case of `O=C(O)C(=O)Nc1sc2c(c1C(=O)O)CCN(CCc1ccccc1)C2` [Example 6], the Ki came out at 3 µM.
